Measurements: a melting point compilation (Tetko et al.; mined from patent text by program, amines drawn as free bases though some values may be those of a salt)

Row | Compound | melting point
1 | CCOP(=O)(OCC)c1c(C)c2c(c(C)c1-c1c(OC)ccc3ccccc13)CN(S(=O)(=O)c1ccc(C)cc1)C2 | 58 to 60 °C
2 | O=C1NN=C(c2ccc(NC(=O)C3(Cl)CC3)cc2)C2CC12 (centres undefined) | 221 to 222 °C
3 | O=c1oc2c(O)cccc2c(OCCN2CCOCC2)c1-c1ccccc1 | 190 to 191 °C
4 | Cc1nnc2ncc(-c3cccc(C(F)(F)F)c3)nn12 | 265 to 268 °C
5 | C=CCc1cc(O)c(CC=C)c(C=NO)c1O | 241 to 243 °C
6 | CC(O)CCc1cc(C(C)(C)C)c(O)c(C(C)(C)C)c1 (centres undefined) | 62 to 67 °C
7 | CCOc1cc(Cl)ccc1Cn1nc(OC(C)C)cc1CCCOc1c(CC(=O)O)cccc1OC | 98 to 99 °C
8 | COc1ccccc1CN[C@H]1CCCN[C@H]1C1CCCCC1 (relative stereo) | > 225 °C
9 | O=CN(O)C(CS(=O)(=O)c1ccc(-c2ccc(C(F)(F)F)cc2)cc1)c1ccccn1 (centres undefined) | 168 to 169 °C
10 | O=C(O)Cc1cccc(NC(=O)NCC(=O)N2[C@@H](c3ccccc3)CC[C@H]2c2ccccc2)c1 | 152 °C
11 | CC(C)OC(=O)NC1=NCC(c2cccc(F)c2)N1C (centres undefined) | 103 to 104 °C
12 | CCOC=Cc1nc2c(=O)n(Cc3ccccc3)cnc2n1Cc1ccccc1 | 167 to 168 °C
13 | COc1cc(C)nc(C(=O)O)n1 | 140 to 141 °C
14 | [N-]=[N+]=Nc1nc(N=[N+]=[N-])c2ncn(COC(CO)CO)c2n1 | 174 to 180 °C
15 | O=C(CSC(=S)N1Cc2[nH]c3ccccc3c2CC1C(=O)O)c1ccccc1 (centres undefined) | 116 °C
16 | CC(C)(C)c1cc(CCC(=O)OC2CC(C)(C)N(OC3CCCCC3)C(C)(C)C2)cc(-n2nc3ccc(Cl)cc3n2)c1O | 130 to 136 °C
17 | COc1ccc(-c2[nH]nc3c2C(=O)c2c(NC(=O)NN4CCOCC4)cccc2-3)cc1 | 290 to 291 °C
18 | O=C(O)Cc1ccc2c(c1)CC(NS(=O)(=O)c1ccc(Cl)cc1)C2 (centres undefined) | 154 to 155 °C
19 | COC(=O)c1ccc(-c2nc(C(N)=O)c3[nH]c(=O)n(-c4ccccc4OC)c3n2)cc1 | 286 to 290 °C
20 | CCN1c2ccccc2C=C(Br)c2ccccc21 | 148 °C
21 | Cn1nc(-c2ccccc2)cc1C(=O)Nc1ccc(OCC(C)(C)C)c(C#N)c1 | 223 to 224 °C
22 | O=C(Nc1c[nH]nc1C(=O)NCCSc1ccccn1)c1ccccn1 | 162 to 163 °C
23 | OCC12CC3CC(CC(C3)C1Br)C2 (centres undefined) | 138 °C
24 | COc1ccc2cc(Nc3ccc(OCc4ccccc4)cc3)ccc2c1 | 155 to 157 °C
25 | COC(=O)CCCC#CCC1C(=O)CCCC1=O | 108 to 110 °C
26 | CCCC(=O)c1cc(-c2ccccc2)ns1 | 70 °C
27 | N#CC(Sc1nc2ccccc2[nH]1)c1ccccn1 (centres undefined) | 166 to 167 °C

Row | Compound | melting point
28 | CN(C)C1CCc2[nH]c3cccc(F)c3c2C1 (centres undefined) | 166 to 168 °C
29 | N#Cc1cccnc1N1CCN(CC(=O)Nc2ccc(F)c(Cl)c2)CC1 | 137 to 140 °C
30 | O=C(NCCO)Nc1ccccc1 | 120 to 122 °C
31 | Cc1c(-c2cc(Cl)cc(Cl)c2)ccc(N)c1C#N | 182 °C
32 | CCOC(=O)C(C)(C)Sc1ccc2c(-c3ccccc3F)noc2c1Cl | 83.4 °C
33 | COc1ccc(-c2cc(F)c(F)cc2-c2ccc(S(N)(=O)=O)cc2)cc1F | 132 to 133 °C
34 | O=Cc1ccc2[nH]cc(CCCCN3CC=C(c4ccccc4)CC3)c2c1 | 131 °C
35 | CC(C)(O)CCCCc1ccc(CCc2ccc(O)c(O)c2)cc1 | 124 to 126 °C
36 | COC1(C(=O)CCc2ccc(-c3ccc(O)cc3)cc2)C=CC(Cl)=CC1N (centres undefined) | 145 to 150 °C
37 | CCCc1nn(-c2ccc(C(F)(F)F)cn2)cc1CCC(=O)OCC | 73 to 74 °C
38 | Cc1cc(C)cc(-c2cc(C(=O)NCCCCCCCc3ccccc3)cc(-c3cc(C)cc(C)c3)c2OCCCC(=O)O)c1 | 64 to 66 °C
39 | O=C(O)c1ccc(CC2COc3ccc(OCc4ccc5ccccc5n4)cc3C2O)cc1 (centres undefined) | 199 to 201 °C
40 | Cn1ncc(C(=O)O)c1C(=O)Nc1ccn2nc(-c3cccnc3)nc2c1 | > 250 °C
41 | CCOC(=O)CC12CC1CCCC2=O (centres undefined) | 154 to 156 °C
42 | ClC(Cl)(Cl)c1nncs1 | 58 °C
43 | O=C1N(Cc2ccccn2)c2cccc(-c3cccnc3)c2C12COc1cc3c(cc12)CCO3 (centres undefined) | > 200 °C
44 | Cc1ccc(N2N=C3c4cc(C)sc4CCCC3CC2=O)cc1 (centres undefined) | 117 to 119 °C
45 | CC(C)C1(C(C)C)CC(c2ccc(N)cc2)=CC=C1N | 288 °C
46 | O=C1CC(Cc2ccncc2)(Cc2ccncc2)C(=O)N1C12CC3CC(CC(C3)C1)C2 | 137 to 138 °C
47 | Cc1[nH]c2ccc(S(=O)(=O)c3ccc(C(F)(F)F)cc3)cc2c1CCNC(=O)OC(C)(C)C | 162 to 164 °C
48 | COc1cc(C(=O)c2ccccc2[N+](=O)[O-])c(Br)cn1 | 128 to 131 °C
49 | O=C(O)C1(Cc2ccccc2)CCN(Cc2ccccc2)C1 (centres undefined) | 209 to 210 °C
50 | CCCc1nc2c(N)nc3ccc(-c4cccc(NS(C)(=O)=O)c4)cc3c2s1 | 244 to 246 °C
51 | O=C(O)C(O)N1C(=O)CCN1c1cccc(C(F)(F)F)c1 (centres undefined) | 142 to 144 °C
52 | CC(C)C(=O)NCCCn1c(CCO)nc2c(N)nc3ccccc3c21 | 196 to 198 °C
53 | COc1ccc(F)c(N)c1 | 27 to 28 °C

Results, then the compound that gave them:

Row | melting point | Compound
54 | 238 to 239 °C | CCOc1nc2ccc(Cl)cc2c(-c2ccccc2)c1NC(=O)Nc1ccc(F)cc1F
55 | 202 to 204 °C | CC1=CCC(=Nc2cc([N+](=O)[O-])ccc2O)S1
56 | 127 to 128 °C | CC(C)c1ccc(-c2ccc(C3N=C(c4ccccc4Cl)CC3C#N)cc2)cc1 (centres undefined)
57 | 278 to 283 °C | COc1ccc(C(=O)NC(=O)Nc2ccc3c(c2)/C(=C/c2ccc[nH]2)C(=O)N3)cc1
58 | 43 °C | CN1C(=O)N(CCC(NS(=O)(=O)c2ccc(-c3ccc(Cl)cc3)cc2)C(=O)O)C(=O)C1(C)C (centres undefined)
59 | 142 to 143 °C | CCN1C2=C(C(=O)Nc3ccccc3F)C(=O)CCN2c2ccccc21
60 | 141 to 142 °C | O=C(O)C(Oc1ccc(Cl)cc1)c1ccc(Oc2ccc(Cl)cc2)cc1 (centres undefined)
61 | 107 to 109 °C | COc1cc(COc2nn(-c3ccccc3)cc2/C=C/c2csc(C(C)C)n2)ccc1OCc1nc(-c2ccc(CC(=O)O)cc2)oc1C
62 | 154 to 155 °C | C[C@@H]1CN(CC(=O)Nc2ccccc2C(F)(F)F)C[C@H](C)N1c1ncnc2sccc12
63 | 46 to 47 °C | CCCCCCCCCCCCCCCCCCN(CCCCCCCCCCCCCCCCCC)C(=O)N1CCN(C)CC1
64 | 193 to 195 °C | Cc1cc(CC(=O)NCc2cccc3c2C(=O)N(C2CCC(=O)NC2=O)C3=O)c(C)o1 (centres undefined)
65 | 79 to 81 °C | CN(C)c1ccc2c(c1Br)C(=O)C1(CC1)O2
66 | 125 °C | CC(O)(c1cccc(Cl)c1)c1cc(Cl)ccc1O (centres undefined)
67 | 149 to 151 °C | COc1cc(C(=O)N2CCN(C(=O)/C=C/c3cccc(-c4cc(OC)c(OC)c(OC)c4)c3)CC2)cc(OC)c1OC
68 | 185 to 188 °C | O=C(NCc1ccccc1N1CCNCC1)c1cnc2c(-c3cccc(Cl)c3)cnn2c1
69 | 114 to 116 °C | c1ccc(C(c2ccccc2)N2CCN(Cc3cscn3)CC2)cc1
70 | 186 to 188 °C | C#CC1N(C(=O)Oc2ccccc2)c2ccc(OC)cc2C23OC12CCCC3=O (centres undefined)
71 | 119 to 122 °C | CC1=C(C(=O)Nc2cc(C(=O)OC(C)C)c(C)cc2F)SCCO1
72 | 116 to 120 °C | CC(=O)N1CCCC(C(=O)c2ccc(N3CCCCC3)cc2)C1 (centres undefined)
73 | 98 to 102 °C | OC(Cc1cnc(-c2c(F)cccc2F)nn1)c1ccc(Cl)cc1 (centres undefined)
74 | 214 to 216 °C | CCNS(=O)(=O)c1ccc(-c2cnc3[nH]c(CCc4cc(OC)ccn4)nc3c2)cc1
75 | 108 to 109 °C | CC1=C(Cc2cccc(Br)c2)C(=O)C2C=CC=CC2C1=O (centres undefined)
76 | 212 to 214 °C | O=[N+]([O-])c1ccc(NN=CCc2cccnc2)cc1

Row | melting point | Compound
77 | 104 to 106 °C | Cc1cccc(C(=O)Nc2ccc3c(c2)CCC(NCc2ccccn2)CC3)c1-c1ccc(C(F)(F)F)cc1 (centres undefined)
78 | 73 to 75 °C | COC(=O)CC1=C(C)/C(=C/c2ccc(SC)cc2)c2ccc(F)cc21
79 | 130 to 132 °C | O=C(C=Cc1ccccc1)N1CCc2c([nH]c3ccccc23)C1c1ccccc1 (centres undefined)
80 | 220 to 223 °C | N#Cc1cnc2cnc(Cl)cc2c1Nc1cccc(Br)c1
81 | > 330 °C | O=C1Cc2c([nH]c3cc(Cl)cc(Cl)c23)-c2ncccc2N1
82 | 158 to 160 °C | CCOC(=O)N1CCN(C(=O)Cn2sc3ccccc3c2=O)CC1
83 | 175 to 177 °C | O=C(NCCCn1ccnc1)c1ccccc1NS(=O)(=O)c1ccc(Cl)cc1
84 | 217 to 220 °C | Cc1nc(-c2ccc(NS(=O)(=O)c3sc4ccc(F)cc4c3C)c(S(C)(=O)=O)c2)cs1
85 | 106 °C | CS(=O)(=O)Nc1ccccc1SCc1ncon1
86 | 121 to 123 °C | CCC(NC(=N)NC#N)c1ccccc1 (centres undefined)
87 | 212 °C | CC1(C)C(=O)C(c2ccc(S(C)(=O)=O)cc2)=C1c1ccc(S(C)(=O)=O)cc1
88 | 112 to 113 °C | CC1OC(Cn2cncn2)(c2ccc(F)cc2F)C1(C)C (centres undefined)
89 | 138 to 140 °C | O=S(=O)(CCCCl)Nc1cccc(Oc2cccc3cccnc23)c1
90 | 144 to 146 °C | Cn1cc(-c2cc3cccnc3[nH]2)c2cc(OC3(CO)CCC3)ccc21
91 | 182 to 184 °C | Cn1c(-c2ccc(O)c(F)c2)cc2ncccc2c1=O
92 | 118 to 120 °C | O=C(Nc1ccc(Oc2ccnc(NC3CCCCC3)n2)c2ccccc12)c1cc(F)cc(N2CCCCC2)c1
93 | 161 to 163 °C | O=C1N(Cc2sccc2Cl)c2ccccc2C12COc1cc3c(cc12)OCO3 (centres undefined)
94 | 86 to 89 °C | CCOC(=O)C1=C(COCC(O)CCO)NC(C)=C(C(=O)OC)C1c1cccc(Cl)c1Cl (centres undefined)
95 | 205 to 206 °C | O=C1N(Cc2ccccn2)c2ccccc2C12COc1c2ccc2c1OCCO2 (centres undefined)
96 | 123 to 124 °C | ON=C1CCSc2sccc21
97 | 52 to 53 °C | COC(=O)c1ccc(CCc2nc(-c3ccccc3)c(C)s2)cc1
98 | 150 to 152 °C | O=[N+]([O-])c1cc(Br)ccc1N1CCc2cc(Br)ccc21
99 | 83 to 85 °C | CCOC(=O)C(Cc1ccccc1)(C(=O)Nc1ccc(Cl)cc1)c1ccccc1 (centres undefined)
